Measurements as given in US9321790B2, “Pyrimidinone derivatives as antimalarial agents” (SANOFI, priority 2012, dated 2016).
pIC50: −log10 of the molar value. Read-outs that look alike come from different tables or passages of the source.

What was measured:
human PI3Kα = human PI3Kα (Homo sapiens (Human), UniProt P42336); assay: Human PI3Kα activity test (luciferin/luciferase ATP consumption, KinaseGlo); assay type: biochemical; details: read-out: IC50 Human PI3Kα
Method: The test uses a luciferin/luciferase system to measure the concentration of ATP and its consumption during the enzymatic reaction.
After 90 minutes, the reaction is quenched by adding 20 μl/well of KinaseGlo reagent (Promega V6713). After 10 minutes in the dark, the luminescence is read using a PHERAStar microplate reader (reading at 0.8 sec/well).

[1] = system: Plasmodium falciparum (strain NF54); assay: Antimalarial activity test: growth of Plasmodium falciparum in infected human erythrocytes, 3H-hypoxanthine incorporation; assay type: cell-based; details: strain NF54 sensitive to chloroquine, 72 h total incubation
Method: The compounds according to the invention underwent pharmacological trials to determine their inhibitory effect on the growth of Plasmodium falciparum (strain NF54 sensitive to inhibition with chloroquine) in an in vitro test using infected human erythrocytes. The growth of the parasites is measured via the incorporation of tritiated hypoxanthine compared with the incorporation in the absence of drug. The tests are performed in 96-well microplates (Falcon™ 96-well microtiter plates, ref. No. 353072) in RPMI 1640 solutions (10.44 g/l) (without hypoxanthine) with HEPES (5.94 g/l), NaHCO3 (2.1 g/l), neomycin ([…])+AlbumaxR II (5 g/l) supplemented with human erythrocytes with a final hematocrit of 1.25% and a final parasitemia of 0.15%.
The stock solution of the compounds is prepared at 10 mg/mL in DMSO. For the test, fresh solutions at the desired concentrations are prepared in RPMI medium. For the test, 100 μl of compound are mixed with 100 μl of infected blood. For the determination of the IC50 values, the compounds are tested in twofold serial dilution.
The plates are incubated at 37° C. under a humid atmosphere with 93% N2, 4% CO2 and 3% O2. After 48 hours, 50 μl of ^3H-hypoxanthine (=0.5 μCi) in RPMI medium are added to each well and incubation is continued for a further 24 hours. Next, the plates are washed with distilled water and the cell lyzate is transferred onto fiberglass filters. The filters are dried and the radioactivity is determined by liquid scintillation. The results in cpm are converted into percentages of inhibition. The inhibitory activity is given by the concentration that inhibits 50% of the growth of the parasite relative to a control without compound.

[2] = PI3Kα (p110α/p85α), 50 μM PIP2, 2 μM ATP, 90 minutes
[3] = Plasmodium falciparum, Erythrocyte
[4] = known compounds of WO 2011/001 112 and WO 2011/001 113

human PI3Kα, sequence (P42336 whole entry): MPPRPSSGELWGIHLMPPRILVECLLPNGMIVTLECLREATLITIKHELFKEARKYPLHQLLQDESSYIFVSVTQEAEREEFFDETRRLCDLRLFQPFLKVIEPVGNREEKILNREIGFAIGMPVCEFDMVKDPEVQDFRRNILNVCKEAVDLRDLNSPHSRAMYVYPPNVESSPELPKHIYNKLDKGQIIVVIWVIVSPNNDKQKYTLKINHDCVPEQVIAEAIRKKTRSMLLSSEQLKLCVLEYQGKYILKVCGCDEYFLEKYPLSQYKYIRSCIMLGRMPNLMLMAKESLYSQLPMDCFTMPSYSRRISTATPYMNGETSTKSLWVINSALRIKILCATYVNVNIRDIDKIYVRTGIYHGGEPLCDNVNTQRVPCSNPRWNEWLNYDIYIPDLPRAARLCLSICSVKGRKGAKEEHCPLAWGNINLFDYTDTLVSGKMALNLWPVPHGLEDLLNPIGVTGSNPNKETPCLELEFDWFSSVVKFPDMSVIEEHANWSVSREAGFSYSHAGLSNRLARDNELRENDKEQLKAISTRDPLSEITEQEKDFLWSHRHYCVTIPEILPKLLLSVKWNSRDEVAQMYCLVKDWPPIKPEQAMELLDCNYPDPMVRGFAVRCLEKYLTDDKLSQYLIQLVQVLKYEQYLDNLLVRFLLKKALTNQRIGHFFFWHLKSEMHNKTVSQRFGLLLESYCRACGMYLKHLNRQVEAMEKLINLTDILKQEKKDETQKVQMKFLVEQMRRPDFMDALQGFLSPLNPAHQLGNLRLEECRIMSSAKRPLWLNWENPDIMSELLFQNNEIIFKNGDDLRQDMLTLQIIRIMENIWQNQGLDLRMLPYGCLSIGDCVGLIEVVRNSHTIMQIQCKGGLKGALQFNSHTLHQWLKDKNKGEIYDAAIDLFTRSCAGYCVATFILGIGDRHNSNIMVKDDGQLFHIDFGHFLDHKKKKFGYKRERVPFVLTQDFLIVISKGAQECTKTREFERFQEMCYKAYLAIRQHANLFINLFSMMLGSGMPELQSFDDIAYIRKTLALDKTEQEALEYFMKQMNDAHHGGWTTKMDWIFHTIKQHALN
human PI3Kα, sequence (P27986 whole entry partner): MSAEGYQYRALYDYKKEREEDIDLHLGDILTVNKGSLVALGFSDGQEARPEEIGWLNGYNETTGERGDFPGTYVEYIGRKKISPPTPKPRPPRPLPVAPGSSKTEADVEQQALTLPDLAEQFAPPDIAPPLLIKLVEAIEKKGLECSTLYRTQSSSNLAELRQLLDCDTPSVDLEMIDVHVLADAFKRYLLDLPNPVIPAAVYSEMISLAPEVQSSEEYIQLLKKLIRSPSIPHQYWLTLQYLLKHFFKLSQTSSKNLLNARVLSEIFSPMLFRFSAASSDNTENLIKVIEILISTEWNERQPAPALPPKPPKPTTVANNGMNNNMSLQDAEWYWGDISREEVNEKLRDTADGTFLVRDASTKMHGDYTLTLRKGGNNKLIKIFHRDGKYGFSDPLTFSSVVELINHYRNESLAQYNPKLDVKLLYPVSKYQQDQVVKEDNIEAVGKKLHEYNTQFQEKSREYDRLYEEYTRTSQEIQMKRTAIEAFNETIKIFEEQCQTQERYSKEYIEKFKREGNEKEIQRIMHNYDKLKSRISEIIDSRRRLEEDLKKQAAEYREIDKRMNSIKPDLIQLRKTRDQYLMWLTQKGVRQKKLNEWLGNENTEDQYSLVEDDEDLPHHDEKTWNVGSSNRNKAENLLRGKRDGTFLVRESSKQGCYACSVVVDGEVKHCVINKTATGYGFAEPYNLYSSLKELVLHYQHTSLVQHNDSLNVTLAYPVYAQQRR

SMILES	pIC50 (human PI3Kα; [2])	pIC50 [1, 3]	pIC50 [1]	pIC50 (human PI3Kα; [4])
CC(C)(CN1c2nc(N3C[C@@H]4C[C@H]3CO4)cc(=O)n2CC[C@H]1C(F)(F)F)c1ccncc1 [Compound 1, (8S)-9-(2-methyl-2-pyrid-4-ylpropyl)-2-(1S,4S)-2-oxa-5-azabicyclo[2.2.1]hept-5-yl-8-trifluoromethyl-6,7,8,9-tetrahydropyrimido[1,2-a]pyrimidin-4-one]	5.50	7.70	–	–
O=C(CN1c2nc(N3C[C@@H]4C[C@H]3CO4)cc(=O)n2CC[C@H]1C(F)(F)F)c1ccncc1 [Compound 2, (8S)-2-(1S,4S)-2-oxa-5-azabicyclo[2.2.1]hept-5-yl-9-(2-oxo-2-pyrid-4-ylethyl)-8-trifluoromethyl-6,7,8,9-tetrahydropyrimido[1,2-a]pyrimidin-4-one]	≤ 5.00	7.82	–	–
Nc1ccc(C(=O)CN2c3nc(N4CC5CC4CO5)cc(=O)n3CC[C@H]2C(F)(F)F)cn1 (stereo partly drawn) [Compound 3, (8S)-9-[2-(6-Aminopyrid-3-yl)-2-oxoethyl]-2-oxa-5-azabicyclo[2.2.1]hept-5-yl-8-trifluoromethyl-6,7,8,9-tetrahydropyrimido[1,2-a]pyrimidin-4-one]	5.14	–	7.89	–
Cc1ccc(C(=O)CN2c3nc(N4C[C@@H]5C[C@H]4CO5)cc(=O)n3CC[C@H]2C(F)(F)F)cn1 [Compound 4, (8S)-9-[2-(6-methylpyrid-3-yl)-2-oxoethyl]-2-(1S,4S)-2-oxa-5-azabicyclo[2.2.1]hept-5-yl-8-trifluoromethyl-6,7,8,9-tetrahydropyrimido[1,2-a]pyrimidin-4-one]	< 5.00	7.24	–	–
CNc1ccc(C(=O)CN2c3nc(N4C[C@@H]5C[C@H]4CO5)cc(=O)n3CC[C@H]2C(F)(F)F)cn1 [Compound 5, (8S)-9-[2-(6-methylaminopyrid-3-yl)-2-oxoethyl]-2-(1S,4S)-2-oxa-5-azabicyclo[2.2.1]hept-5-yl-8-trifluoromethyl-6,7,8,9-tetrahydropyrimido[1,2-a]pyrimidin-4-one]	5.09	7.02	–	–
CN(C)c1ccc(C(=O)CN2c3nc(N4C[C@@H]5C[C@H]4CO5)cc(=O)n3CC[C@H]2C(F)(F)F)cn1 [Compound 6, (8S)-9-[2-(6-dimethylaminopyrid-3-yl)-2-oxoethyl]-2-(1S,4S)-2-oxa-5-azabicyclo[2.2.1]hept-5-yl-8-trifluoromethyl-6,7,8,9-tetrahydropyrimido[1,2-a]pyrimidin-4-one]	< 5.00	< 6.70	–	–
O=C(CN1c2nc(N3C[C@@H]4C[C@H]3CO4)cc(=O)n2CC[C@H]1C(F)(F)F)c1cccnc1 [Compound 7, (8S)-2-(1S,4S)-2-oxa-5-azabicyclo[2.2.1]hept-5-yl-9-(2-oxo-2-pyrid-3-ylethyl)-8-trifluoromethyl-6,7,8,9-tetrahydropyrimido[1,2-a]pyrimidin-4-one]	≤ 5.00	8.00	–	–
CN(C)c1ccc(C(=O)CN2c3nc(N4C[C@@H]5C[C@H]4CO5)cc(=O)n3C[C@@]2(C)C(F)(F)F)cn1 [Compound 8, 1-[2-(6-Dimethylaminopyrid-3-yl)-2-oxoethyl]-2-(S)-methyl-7-(1S,4S)-2-oxa-5-azabicyclo[2.2.1]hept-5-yl-2-trifluoromethyl-2,3-dihydro-1H-imidazo[1,2-a]pyrimidin-5-one]	< 5.00	< 6.70	–	–
CNc1ccc(C(=O)CN2c3nc(N4C[C@@H]5C[C@H]4CO5)cc(=O)n3C[C@@]2(C)C(F)(F)F)cn1 [Compound 9, 2-methyl-1-[2-(6-methylaminopyrid-3-yl)-2-oxoethyl]-7-(1S,4S)-2-oxa-5-azabicyclo[2.2.1]hept-5-yl-2-((S)-trifluoromethyl)-2,3-dihydro-1H-imidazo[1,2-a]pyrimidin-5-one]	< 5.00	< 6.70	–	–
COc1ccc(CCN2c3nc(N4C[C@@H]5C[C@H]4CO5)cc(=O)n3C[C@@]2(C)C(F)(F)F)cc1 [Compound 10, (8S)-1-[2-(4-Methoxyphenyl)ethyl]-2-methyl-7-(1S,4S)-2-oxa-5-azabicyclo[2.2.1]hept-5-yl-2-trifluoromethyl-2,3-dihydro-1H-imidazo[1,2-a]pyrimidin-5-one]	5.14	–	7.96	–
C[C@@]1(C(F)(F)F)Cn2c(nc(N3C[C@@H]4C[C@H]3CO4)cc2=O)N1CC(=O)c1ccc(N)nc1 [Compound 11, (S)-1-[2-(6-Aminopyrid-3-yl)-2-oxoethyl]-2-methyl-7-(1S,4S)-2-oxa-5-azabicyclo[2.2.1]hept-5-yl-2-trifluoromethyl-2,3-dihydro-1H-imidazo[1,2-a]pyrimidin-5-one]	≤ 5.00	7.40	–	–
O=c1cc(N2C[C@@H]3C[C@H]2CO3)nc2n1CC[C@@H](C(F)(F)F)N2CCc1cccnc1 [Compound 12, (8S)-2-(1S,4S)-2-oxa-5-azabicyclo[2.2.1]hept-5-yl-9-(2-pyrid-3-ylethyl)-8-trifluoromethyl-6,7,8,9-tetrahydropyrimido[1,2-a]pyrimidin-4-one]	5.54	8.05	–	–
C[C@@]1(C(F)(F)F)Cn2c(nc(N3C[C@@H]4C[C@H]3CO4)cc2=O)N1CCc1cccnc1 [Compound 13, 2-Methyl-7-(1S,4S)-2-oxa-5-azabicyclo[2.2.1]hept-5-yl-1-(2-pyrid-3-ylethyl)-2-((S)-trifluoromethyl)-2,3-dihydro-1H-imidazo[1,2-a]pyrimidin-5-one]	5.24	–	7.68	–
O=c1cc(N2CC3CCC(C2)O3)nc2n1CC[C@@H](C(F)(F)F)N2C[C@@H](O)c1ccccc1 [Compound 80, (8S)-9-((S)-2-hydroxy-2-phenylethyl)-2-(8-oxa-3-azabicyclo[3.2.1]oct-3-yl)-8-trifluoromethyl-6,7,8,9-tetrahydropyrimido[1,2-a]pyrimidin-4-one]	5.80	–	–	–
COc1ccc(CCN2c3nc(N4CC5CCC(C4)O5)cc(=O)n3CC[C@H]2C(F)(F)F)cc1 [Compound 81, (8S)-9-[2-(4-Methoxyphenyl)ethyl]-2-(8-oxa-3-azabicyclo[3.2.1]oct-3-yl)-8-trifluoromethyl-6,7,8,9-tetrahydropyrimido[1,2-a]pyrimidin-4-one]	5.70	–	–	–
O=C(CN1c2nc(N3CC4CCC(C3)O4)cc(=O)n2CC[C@H]1C(F)(F)F)c1cccnc1 [Compound 87, (8S)-2-(8-Oxa-3-azabicyclo[3.2.1]oct-3-yl)-9-(2-oxo-2-pyrid-3-ylethyl)-8-trifluoromethyl-6,7,8,9-tetrahydropyrimido[1,2-a]pyrimidin-4-one]	≤ 5.00	–	–	–
COc1ccc(CCN2c3nc(N4CCOCC4)cc(=O)n3C[C@@]2(C)C(F)(F)F)cc1 [Example 1 (p. 39, WO 2011/001 112), reference compound]	–	–	–	7.82
COc1ccc(CCN2c3nc(N4CCOCC4)cc(=O)n3CC[C@H]2C(F)(F)F)cc1 [Example 1 (p. 44, WO 2011/001 113), reference compound]	–	–	–	8.05
C[C@@]1(C(F)(F)F)Cn2c(nc(N3CCOCC3)cc2=O)N1C[C@@H](O)c1ccccc1 [Example 10 (p. 61, WO 2011/001 112), reference compound]	–	–	–	7.77
